Measured values from patent publication US20220218693A1, “IMMUNE CHECKPOINT INHIBITOR COMBINATION THERAPY USING QUINOLINE CARBOXAMIDE DERIVATIVE” (KABUSHIKI KAISHA YAKULT HONSHA, priority 2019, published 2022).

Legend:
Assay type in all cases: in vivo, BALB/c mice
[1] = system: mouse bowel cancer cell line CT26 cells; experiment: Antitumor effect of combined administration in CT26 tumor-bearing mice (Example 1); conditions: FIG. 1
Source text: Six-week-old female BALB/c mice (72 mice) were purchased from Japan SLC, Inc., conditioned and raised for 5 days in University of Shizuoka, Experimental Animal Center, and then used for experiments.
Hair on a back part and ventral parts of the BALB/c mouse was shaved, and 1×10^6 mouse bowel cancer cell line CT26 cells (ATCCs) were subcutaneously transplanted in each of the left and right ventral parts (day 0). Five days after the transplantation, the longer diameter (mm) and the shorter diameter (mm) of the tumor were measured using a digital caliper (A&D Company, Limited), and a tumor volume was calculated. […]
An average of the tumor volumes on the left and the right was calculated for each individual, and on the basis of the thus-obtained value, the mice were divided into eight groups (nine mice in each group) in such a manner that the variations in tumor volume between individuals in the groups were the same. […]
The evaluation item was an average of the tumor volumes on the left and the right in each individual. From day 5, the longer diameter (mm) and the shorter diameter (mm) of the tumor were measured at an interval of one day or two days using a digital caliper. […] An average of the tumor volumes on the left and the right was calculated for each individual. […]

[2] = system: mouse bowel cancer cell line CT26 cells; experiment: Antitumor effect of combined administration in CT26 tumor-bearing mice (Example 2); conditions: STX-1159 40 mg/kg p.o. days 6, 8 and 10 + PD-1 Ab 50 μg/mouse i.p. days 8, 10 and 13; compared with either agent alone; FIG. 2
Source text: (§1) Six-week-old female BALB/c mice were purchased from Japan SLC, Inc., conditioned and raised for about a week in University of Shizuoka, Experimental Animal Center, and then used for experiments.
(§2) Hair on a back part and ventral parts of the BALB/c mouse was shaved, and 1×10^6 mouse bowel cancer cell line CT26 cells (ATCCs) were subcutaneously transplanted in each of the left and right ventral parts (day 0). Six days after the transplantation, the longer diameter (mm) and the shorter diameter (mm) of the tumor were measured using a digital caliper (A&D Company, Limited), and a tumor volume was calculated. The expression for calculation of the tumor volume was as follows: tumor volume (mm^3)=0.5×(longer diameter mm)×(shorter diameter mm)^2. An average of the tumor volumes on the left and the right was calculated for each individual, and on the basis of the thus-obtained value, the mice were divided into groups in such a manner that the variations in tumor volume between individuals in the groups were the same.
STX-1159 was orally administered at 40 mg/kg three times every other day. […]
The evaluation item was an individual tumor volume. From day 6, the longer diameter (mm) and the shorter diameter (mm) of the tumor were measured at an interval of one to four days using a digital caliper. […]

[3] = system: mouse fibrosarcoma CMS5a cells; experiment: Antitumor effect of combined administration in CMS5a tumor-bearing mice (Example 3); conditions: STX-1159 40 mg/kg p.o. days 5 to 9 + PD-1 Ab 200 μg/mouse i.p. days 12, 14 and 16; t-test versus control; FIG. 3
Source text: as §1
as §2, with “fibrosarcoma CMS5a” for “bowel cancer cell line CT26”, “cells” for “cells (ATCCs)”, “Five” for “Six”
STX-1159 was orally administered at 40 mg/kg continuously for five days. […]
The evaluation item was an individual tumor volume. From day 5, the longer diameter (mm) and the shorter diameter (mm) of the tumor were measured at an interval of one or two days using a digital caliper. […]

Compound: O=C(Nc1nnc(-c2ccco2)o1)c1cc(-c2ccccc2)nc2ccc(OC(F)(F)F)cc12 [STX-1159, N-[5-(2-furyl)-1,3,4-oxadiazol-2-yl]-2-phenyl-6-trifluoromethoxy-4-quinoline carboxamide]
- antitumor effect (tumor volume) ([1]; STX-1159 40 mg/kg p.o. days 5 to 9 in advance + PD-1 Ab 50 μg/mouse i.p. days 12, 14 and 16, compared with simultaneous and later administration groups): much higher antitumor effect
- antitumor effect (tumor volume) ([1]; simultaneous: STX-1159 40 mg/kg p.o. days 12 to 16 + PD-1 Ab 50 μg/mouse i.p. days 12, 14 and 16, compared with each single-agent group): antitumor effect was lower
- antitumor effect (tumor volume) [2]: much higher antitumor effect
- tumor shrinkage (tumor volume) versus control group [3]: showed more significant tumor shrinkage over the control group
